This is an account of results in ChEMBL document CHEMBL4673377 (Bioorg Med Chem Lett, 2021).

The target in data set [1] is Kynurenine 3-monooxygenase (Mus musculus, UniProt Q91WN4).
Description: Inhibition of mouse liver mitochondrial KMO by measuring the 3-HK metabolite formation using L-kynurenine as substrate preincubated for 5 mins followed by substate addition and measured after 30 mins by LC-MS/MS analysis
Data set [2] can be described thus: Permeability of compound at pH 7.4 by PAMPA assay. The format is ADME. To be noted: read-out: permeability.
Data set [3] is described as follows: Drug uptake in mouse brain at 10 mg/kg, po after 1 hr. The format is ADME, organism-based. To be noted: read-out: Drug uptake.
The nature of data set [4]: Plasma concentration in mouse at 10 mg/kg, po after 1 hr. Format: ADME, organism-based.
A short description of another data set: in vivo. To be noted: mouse, brain/plasma, po, 10 mg/kg.
In data set [5] the target is T1, Kynurenine 3-monooxygenase (Homo sapiens, UniProt O15229).
Target sequence in this assay (O15229 whole entry): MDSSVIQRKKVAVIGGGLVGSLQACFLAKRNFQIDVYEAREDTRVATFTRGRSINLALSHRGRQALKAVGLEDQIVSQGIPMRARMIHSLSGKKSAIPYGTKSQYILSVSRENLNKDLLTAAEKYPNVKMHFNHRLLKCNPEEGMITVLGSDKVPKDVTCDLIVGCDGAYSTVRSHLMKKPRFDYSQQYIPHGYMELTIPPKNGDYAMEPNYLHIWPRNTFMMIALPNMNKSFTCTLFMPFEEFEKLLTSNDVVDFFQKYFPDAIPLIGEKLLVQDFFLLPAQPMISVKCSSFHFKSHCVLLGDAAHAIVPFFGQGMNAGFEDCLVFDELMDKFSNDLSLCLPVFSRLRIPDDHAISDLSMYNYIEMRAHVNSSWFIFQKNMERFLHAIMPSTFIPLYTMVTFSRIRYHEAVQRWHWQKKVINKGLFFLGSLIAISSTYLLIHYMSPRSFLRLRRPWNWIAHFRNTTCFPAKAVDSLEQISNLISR
Description: Inhibition of KMO (unknown origin)
Data set [6] concerns Mus musculus. Briefly: Effect on R6/2 mouse model of HD assessed as increase in latency to fall at 100 mg/kg, po administered twice daily for 11 weeks age starting from 5 weeks of age by rotarod test. Format: functional, organism-based. For orientation: In the rotarod test animals must keep their balance on a rotating rod.
The test system of data set [7] is Mus musculus. The data set can be described thus: Cognitive enhancing effect in R6/2 mouse model of HD assessed as increase in spontaneous alteration at 100 mg/kg, po administered twice daily for 12 weeks starting from 5 weeks of age by Y-maze test. The format is functional, organism-based.
In data set [8] the test system is Mus musculus. The data set can be described thus: In vivo inhibition of KMO in R6/2 mouse model of HD assessed as decrease in 3-HK level in striatum at 100 mg/kg, po administered twice daily for 7 weeks starting from 5 weeks age. Format: functional, organism-based.
For data set [9], the target named is Kynurenine 3-monooxygenase (Mus musculus) (UniProt Q91WN4). Briefly: Inhibition of mouse liver mitochondrial KMO by measuring the 3-HK metabolite formation at 100 nM using L-kynurenine as substrate preincubated for 5 mins followed by substate addition and measured after 30 mins by LC-MS/MS analysis relative to control. To be noted: Mitochondria, time 35.0 min.
Kynurenine 3-monooxygenase (Mus musculus), sequence (Q91WN4 whole entry, looked up): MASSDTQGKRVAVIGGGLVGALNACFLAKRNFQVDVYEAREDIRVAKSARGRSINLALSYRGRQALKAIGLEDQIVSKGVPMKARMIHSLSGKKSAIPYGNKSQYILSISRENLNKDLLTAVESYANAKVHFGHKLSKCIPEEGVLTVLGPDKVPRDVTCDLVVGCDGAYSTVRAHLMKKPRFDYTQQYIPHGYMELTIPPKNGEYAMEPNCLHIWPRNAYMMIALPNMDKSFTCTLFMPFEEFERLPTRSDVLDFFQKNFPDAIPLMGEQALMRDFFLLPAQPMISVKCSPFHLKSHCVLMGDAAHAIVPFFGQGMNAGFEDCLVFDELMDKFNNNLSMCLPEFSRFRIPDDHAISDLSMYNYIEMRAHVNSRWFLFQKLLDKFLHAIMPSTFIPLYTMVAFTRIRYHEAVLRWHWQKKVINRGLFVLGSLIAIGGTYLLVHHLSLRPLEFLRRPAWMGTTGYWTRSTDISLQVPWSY

The target of data set [10] is T1, Kynurenine 3-monooxygenase. The data set can be described thus: Inhibition of human liver mitochondrial KMO at by measuring the 3-HK metabolite formation at 100 nM using L-kynurenine as substrate preincubated for 5 mins followed by substate addition and measured after 30 mins by LC-MS/MS analysis relative to control. To be noted: Mitochondria, time 35.0 min.
Target sequence in this assay (O15229 whole entry, looked up): as the sequence (O15229 whole entry) above

Activity calls are given as the source filed them. The rule behind the calls is not given here.

What is called IC50 is the concentration at which inhibition is half-maximal. A higher IC50 goes with lower potency. Usually Kp stands for tissue or fluid exposure divided by exposure in the circulation. By inhibition is commonly meant the share of the control response that was lost under treatment.

Kynurenine 3-monooxygenase (Mus musculus, UniProt Q91WN4), sequence (Q91WN4 whole entry): as the sequence (Q91WN4 whole entry, looked up) above
Description for in vivo: Ratio of drug level in brain to plasma of mouse at 10 mg/kg, po after 1 hr

Regarding `Cc1ccc(S(=O)(=O)Nc2ccc(-c3ccc(N(C)C)cc3)nn2)cc1`, in [1], the IC50 was found to be 546 nM.
In [1], `Cc1ccc(S(=O)(=O)Nc2ccc(-c3cccc4ccn(C)c34)nn2)cc1` registered an IC50 of 29.1 nM. For the same compound, the Papp in data set [2] was 49.2 ×10⁻⁶ cm/s.
Take `COc1ccccc1-c1ccc(NS(=O)(=O)c2ccc(C)cc2)nn1`: 36.5 nM corresponded to half-maximal inhibition in data set [1] (IC50). The concentration at 1 h was found to be 131 ng/g in [3] and 2520 ng/mL in data set [4]. Further, the Papp in [2] is 34.7 ×10⁻⁶ cm/s. In the data set “in vivo”, this compound showed a Kp at 1 h of 0.052.
Regarding `O=C(O)C1CC1C(=O)c1ccc(Cl)c(Cl)c1` (centres undefined), in [5], the IC50 is 40 nM.
`Cc1ccc(S(=O)(=O)Nc2ccc(-c3ccccc3N3CCOCC3)nn2)cc1` showed an IC50 in [1] of 3.9 nM. For the same compound, the concentration at 1 h was 69 ng/g in [3] and 931 ng/mL in data set [4]. In addition, in data set [2], the Papp came to 44.3 ×10⁻⁶ cm/s. The compound also displayed a concentration ratio (Kp) at 1 h in the data set “in vivo” of 0.076.
In turn, `CN(C)c1ccccc1S(=O)(=O)Nc1ccc(-c2cccc(Cl)c2)nn1` registered an IC50 in data set [1] of 118 nM. Also, the Papp in [2] stood at 35.7 ×10⁻⁶ cm/s.
Consider `Cc1ccc(S(=O)(=O)Nc2ccc(-c3ccccc3N3CCCCC3)nn2)cc1`, for which the concentration at 1 h in [3] was 230 ng/g; in [4], 808 ng/mL. The outcome with Mus musculus [6], in the data set on Mus musculus [7] and with Mus musculus [8] was Active. The Papp in data set [2] stood at 50.6 ×10⁻⁶ cm/s. In addition, the Kp at 1 h in “in vivo” was determined as 0.282.
As to `O=S(=O)(Nc1ccc(-c2cccc(Cl)c2)nn1)c1ccccn1`, in data set [9], the inhibition worked out at 16%.
The compound `CN(C)c1cccc(S(=O)(=O)Nc2ccc(-c3cccc(Cl)c3)nn2)c1` registered an IC50 in data set [1] of 31.7 nM. Moreover, the Papp in data set [2] amounted to 42.5 ×10⁻⁶ cm/s.
In data set [1], `Cc1ccc(S(=O)(=O)Nc2ccc(-c3cccc(N(C)C)c3)nn2)cc1` came in with an IC50 of 82.5 nM. The Papp in data set [2] came to 32.4 ×10⁻⁶ cm/s.
On the same counts, the results for `Cc1cccc(S(=O)(=O)Nc2ccc(-c3cccc(Cl)c3)nn2)c1` are 101 nM and 40.2 ×10⁻⁶ cm/s.
Compound `Cc1ccc(S(=O)(=O)Nc2ccc(-c3ccccc3N3CCCC3)nn2)cc1` came in with an IC50 in data set [1] of 1.7 nM. Besides, the concentration at 1 h is 51 ng/g in [3] and 215 ng/mL in [4]. Also, in data set [2], the Papp was 43.5 ×10⁻⁶ cm/s. The compound also had a concentration ratio (Kp) at 1 h in “in vivo” of 0.235.
For the compound `CN(C)c1cccc(S(=O)(=O)Nc2ccc(-c3ccccc3N3CCCC3)nn2)c1`, the IC50 in data set [1] came out at 3.3 nM. The figures for the concentration at 1 h in [3] and in [4] were 137 ng/g and 879 ng/mL, respectively. In [2], the Papp amounted to 31.2 ×10⁻⁶ cm/s. In the data set “in vivo”, this compound gave a Kp at 1 h of 0.162.
In turn, `CCc1ccccc1-c1ccc(NS(=O)(=O)c2ccc(C)cc2)nn1` showed an IC50 in data set [1] of 29.2 nM.
In the case of `O=C(O)c1cc(-c2ccc(Cl)c(OC3CC3)c2)ncn1`, the IC50 in [1] was determined as 8.7 nM. In addition, the concentration at 1 h is 177 ng/g in [3] and 49100 ng/mL in data set [4]. Besides, in data set [2], the Papp was 6.5 ×10⁻⁶ cm/s. In the data set “in vivo”, this compound gave a Kp at 1 h of 0.004.
In [1], `CN(C)c1ccc(S(=O)(=O)Nc2ccc(-c3cccc(Cl)c3)nn2)cc1` returned an IC50 of 402 nM.
In data set [1], `Cc1ccc(S(=O)(=O)Nc2ccc(-c3cccc4c3N(C)CC4)nn2)cc1` registered an IC50 of 16.9 nM. For the same compound, in data set [2], the Papp turned out to be 38.5 ×10⁻⁶ cm/s.
`O=S(=O)(Nc1ccc(-c2cccc(Cl)c2)nn1)c1cccnc1`: in [9], the inhibition amounted to 31%.
`Cc1ccc(S(=O)(=O)Nc2ccc(-c3cccc4ccncc34)nn2)cc1` came in with an IC50 in [1] of 47.2 nM. Moreover, the Papp in [2] was found to be 22.4 ×10⁻⁶ cm/s.
On to `Cc1ccc(S(=O)(=O)Nc2ccc(-c3ccccc3N3CCN(C)CC3)nn2)cc1`, for which the IC50 in [1] is over 100 nM.
In data set [1], `Cc1ccc(S(=O)(=O)Nc2ccc(-c3cccc4cccnc34)nn2)cc1` gave an IC50 of 8.7 nM. The concentration at 1 h turned out to be 2910 ng/g in [3] and 27900 ng/mL in [4]. In addition, the Papp in data set [2] was 44.1 ×10⁻⁶ cm/s. In addition, the inhibition in data set [10] was found to be 36%. Besides, the Kp at 1 h in “in vivo” is 0.104.
In turn, `Cc1ccc(S(=O)(=O)Nc2ccc(-c3ccccc3N(C)C)nn2)cc1` displayed an IC50 in data set [1] of 4.5 nM. Besides, the concentration at 1 h in [3] came to 25 ng/g; in data set [4], 185 ng/mL. For the same compound, in data set [2], the Papp was 35.7 ×10⁻⁶ cm/s. For the same compound, the Kp at 1 h in “in vivo” was 0.136.
